According to patent US20220041559A1, “BENZO-AND PYRIDO-PYRAZOLES AS PROTEIN KINASE INHIBITORS” (ROTTAPHARM BIOTECH S.R.L., priority 2019, published 2022):

Biological target: T1, FYN (Homo sapiens, UniProt P06241)
T1 construct: purchased CarnaBioscience
Assay: Z'-LYTE in vitro kinase assay, FYN kinase inhibition
Assay type: biochemical
Conditions: Table 17
Experimental: Assays to determine the kinase inhibitory activity of compounds were performed using an automatic liquid handling device (Microlab STAR Hamilton) and Z′-LYTE™ Kinase Assay Platform (Invitrogen), a Fluorescence Resonance Energy Transfer (FRET)-based assay platform compatible with high-throughput screening (HTS) applications. The assay employs a fluorescence-based, coupled-enzyme format and utilizes the differential sensitivity of phosphorylated and non-phosphorylated peptides to proteolytic cleavage.
Test compounds were evaluated towards active FYN (CarnaBioscience). The enzyme was incubated in a 384 low-volume microplate with a synthetic peptide-substrate, ATP and different inhibitor concentrations, ranging from 10^−10 M up to 10^−5 M final concentration. Samples representing the 0% inhibition (or total enzymatic activity) were in the presence of compound diluent (1% DMSO final) in Reaction Buffer (50 mM Hepes, 10 mM MgCl2, 1 mM EGTA, 0.01% Brij-35, pH 7.5).
A near-Km ATP concentrations for the kinase and an optimal enzyme concentration that phosphorylates 20-40% of the Z′-LYTE™ Tyr 2 Peptide in a one-hour incubation, were selected. All reagents were diluted in reaction buffer and the kinase reaction was carried out in a total volume of 10 μl, for 60 minutes at 25° C. The 0% Phosphorylation (i.e. no ATP) and 100% Phosphorylation (i.e. synthetically phosphorylated peptide supplied) Assay Controls, included in each plate, allowed to calculate the percent phosphorylation achieved in the specific reaction well. The 0% Inhibition and 0% Phosphorylation (i.e. 100% Inhibition) Controls define the dynamic range in the screen. At the end of incubation, a secondary reaction (the Development Reaction) started by adding 5 μl of Development Reagent, containing a site-specific protease that recognizes and cleaves non-phosphorylated peptides, and was interrupted after 60 minutes with 5 μl/sample of Stop Reagent. Measurement of the Coumarin (Ex. 400 nm, Em. 460 nm) and Fluorescein (Ex. 400 nm, Em. 535 nm) emission signals were performed by a fluorescence plate reader (Envision, PerkinElmer).
Results are expressed as percentage of inhibition and the IC50 values were calculated by non-linear curve fitting using GraphPad™ Prism software.

T1 sequence (P06241 whole entry): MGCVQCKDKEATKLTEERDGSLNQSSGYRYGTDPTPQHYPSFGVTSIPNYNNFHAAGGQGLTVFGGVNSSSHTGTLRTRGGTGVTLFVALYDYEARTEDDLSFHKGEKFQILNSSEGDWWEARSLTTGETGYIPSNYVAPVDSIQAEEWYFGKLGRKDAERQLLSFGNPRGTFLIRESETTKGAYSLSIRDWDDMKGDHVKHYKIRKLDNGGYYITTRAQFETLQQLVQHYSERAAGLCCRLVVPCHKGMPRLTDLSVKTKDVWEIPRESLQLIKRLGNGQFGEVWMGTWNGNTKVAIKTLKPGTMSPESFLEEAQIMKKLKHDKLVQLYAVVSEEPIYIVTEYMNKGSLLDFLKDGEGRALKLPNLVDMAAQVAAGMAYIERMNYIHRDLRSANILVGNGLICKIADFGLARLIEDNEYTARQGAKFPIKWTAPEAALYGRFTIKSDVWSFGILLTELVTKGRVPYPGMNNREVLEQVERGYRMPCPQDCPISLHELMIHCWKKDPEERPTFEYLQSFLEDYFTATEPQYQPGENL

Row | FYN kinase inhibition, result in words | SMILES
1 | more active | Cc1cccc(F)c1Nc1ccc2c(NC(=O)c3ccc(C4CCN(C)CC4)cc3)n[nH]c2c1 [Compound 11, N-(6-((2-fluoro-6-methylphenyl)amino)-1H-indazol-3-yl)-4-(1-methylpiperidin-4-yl)benzamide]
2 | more active | CN1CCC(c2ccc(C(=O)Nc3n[nH]c4cc(Nc5c(F)ccc6c5OCO6)ccc34)cc2)CC1 [Compound 15, N-(6-((5-fluorobenzo[d][1,3]dioxol-4-yl)amino)-1H-indazol-3-yl)-4-(1-methylpiperidin-4-yl)benzamide]

Same assay, conditions: near-Km ATP, 60 minutes at 25° C.

Row | SMILES | IC50 [nM]
3 | CN1CC[C@@H](c2ccc(C(=O)Nc3n[nH]c4cc(Nc5ccccc5F)ccc34)cc2)[C@@H](F)C1 (single isomer, unassigned) [Compound 3] | 307
4 | CN1CC[C@@H](c2ccc(C(=O)Nc3n[nH]c4cc(Nc5ccccc5F)ccc34)cc2)[C@@H](F)C1 (single isomer, unassigned) [Compound 4] | 203
5 | CCc1cccc(F)c1Nc1ccc2c(NC(=O)c3ccc(C4CCN(C)CC4)cc3)n[nH]c2c1 [Compound 2, N-(6-((2-ethyl-6-fluorophenyl)amino)-1H-indazol-3-yl)-4-(1-methylpiperidin-4-yl)benzamide] | 315
6 | O=C(Nc1n[nH]c2cc(Nc3ccccc3F)ccc12)c1ccc(C2CCN(C3COC3)CC2)cc1 [Compound 7, N-(6-((2-fluorophenyl)amino)-1H-indazol-3-yl)-4-(1-(oxetan-3-yl)piperidin-4-yl)benzamide] | 468
7 | CN1CCC(c2ccc(C(=O)Nc3n[nH]c4cc(Nc5ccc(F)cc5Cl)ccc34)cc2)CC1 [Compound 9, N-(6-((2-chloro-4-fluorophenyl)amino)-1H-indazol-3-yl)-4-(1-methylpiperidin-4-yl)benzamide] | 388
8 | CN1CCC(c2ccc(C(=O)Nc3n[nH]c4cc(Nc5ccccc5C(F)(F)F)ccc34)cc2)CC1 [Compound 10, 4-(1-methylpiperidin-4-yl)-N-(6-((2-(trifluoromethyl)phenyl)amino)-1H-indazol-3-yl)benzamide] | 650
9 | Cc1cccc(F)c1Nc1ccc2c(NC(=O)c3ccc(C4CCN(C)CC4)cc3)n[nH]c2c1 [Compound 11, N-(6-((2-fluoro-6-methylphenyl)amino)-1H-indazol-3-yl)-4-(1-methylpiperidin-4-yl)benzamide] | 47
10 | CN1CCC(c2ccc(C(=O)Nc3n[nH]c4cc(Nc5ccc(Cl)cc5F)ccc34)cc2)CC1 [Compound 12, N-(6-((4-chloro-2-fluorophenyl)amino)-1H-indazol-3-yl)-4-(1-methylpiperidin-4-yl)benzamide] | 220
11 | Cc1cccc(Cl)c1Nc1ccc2c(NC(=O)c3ccc(C4CCN(C)CC4)cc3)n[nH]c2c1 [Compound 13, N-(6-((2-choro-6-methylphenyl)amino)-1H-indazol-3-yl)-4-(1-methylpiperidin-4-yl)benzamide] | 207
12 | CN1CCC(c2ccc(C(=O)Nc3n[nH]c4cc(Nc5c(F)ccc6c5OCO6)ccc34)cc2)CC1 [Compound 15, N-(6-((5-fluorobenzo[d][1,3]dioxol-4-yl)amino)-1H-indazol-3-yl)-4-(1-methylpiperidin-4-yl)benzamide] | 19
13 | CN1CCC(c2ccc(C(=O)Nc3n[nH]c4cc(Nc5ccc(F)cc5F)ccc34)cc2)CC1 [Compound 16, N-(6-((2,4-difluorophenyl)amino)-1H-indazol-3-yl)-4-(1-methylpiperidin-4-yl)benzamide] | 97
14 | Cc1ccc(Nc2ccc3c(NC(=O)c4ccc(C5CCN(C)CC5)cc4)n[nH]c3c2)cc1 [Compound 18, 4-(1-methylpiperidin-4-yl)-N-(6-(p-tolyamino)-1H-indazol-3-yl)benzamide] | 105
15 | CN1CCC(c2ccc(C(=O)Nc3n[nH]c4cc(Nc5cccc(F)c5)ccc34)cc2)CC1 [Compound 19, N-(6-((3-fluorophenyl)amino)-1H-indazol-3-yl)-4-(1-methylpiperidin-4-yl)benzamide] | 258
16 | Cc1cccc(F)c1Nc1ccc2c(NC(=O)c3ccc(C4CCN(C)CC4)cc3)n[nH]c2n1 [Compound 21, N-(6-((2-fluoro-6-methylphenyl)amino)-1H-pyrazolo[3,4-b]pyridin-3-yl)-4-(1-methylpiperidin-4-yl)benzamide] | 442
17 | CN1CCC(c2ccc(C(=O)Nc3n[nH]c4nc(Nc5ccc(F)cc5F)ccc34)cc2)CC1 [Compound 22, N-(6-((2,4-difluorophenyl)amino)-1H-pyrazolo[3,4-b]pyridin-3-yl)-4-(1-methylpiperidin-4-yl)benzamide] | 283
18 | CC(C)N1CCC(c2ccc(C(=O)Nc3n[nH]c4nc(Nc5ccccc5F)ccc34)cc2)CC1 [Compound 24, N-(6-((2-fluorophenyl)amino)-1H-pyrazolo[3,4-b]pyridin-3-yl)-4-(1-isopropylpiperidin-4-yl)benzamide] | 209
19 | CN1CCC(c2ccc(C(=O)Nc3n[nH]c4nc(Nc5ccccc5Cl)ccc34)cc2)CC1 [Compound 26, N-(6-((2-chlorophenyl)amino)-1H-pyrazolo[3,4-b]pyridin-3-yl)-4-(1-methylpiperidin-4-yl)benzamide] | 260
20 | COc1ccccc1Nc1ccc2c(NC(=O)c3ccc(C4CCN(C)CC4)cc3)n[nH]c2n1 [Compound 27, N-(6-((2-methoxyphenyl)amino)-1H-pyrazolo[3,4-b]pyridin-3-yl)-4-(1-methylpiperidin-4-yl)benzamide] | 538
21 | COc1ccc(Nc2ccc3c(NC(=O)c4ccc(C5CCN(C)CC5)cc4)n[nH]c3n2)cc1 [Compound 31, N-(6-((4-methoxyphenyl)amino)-1H-pyrazolo[3,4-b]pyridin-3-yl)-4-(1-methylpiperidin-4-yl)benzamide] | 589

More lines, now with the values ahead:

Row | IC50 [nM] | SMILES
22 | 548 | CN1CCCC(Oc2ccc(C(=O)Nc3n[nH]c4cc(Nc5ccccc5F)ccc34)cc2)C1 (single isomer, unassigned) [Compound 40]
23 | 374 | CN1CCCC(Oc2ccc(C(=O)Nc3n[nH]c4cc(Nc5ccccc5F)ccc34)cc2)C1 (single isomer, unassigned) [Compound 41]
24 | 147 | CN1CCN(c2ccc(C(=O)Nc3n[nH]c4cc(Nc5ccccc5F)ccc34)cc2)CC1 [Compound 34, N-(6-((2-fluorophenyl)amino)-1H-indazol-3-yl)-4-(4-methylpiperazin-1-yl)benzamide]
25 | 145 | CN1CCC(Oc2ccc(C(=O)Nc3n[nH]c4cc(Nc5ccccc5F)ccc34)cc2)CC1 [Compound 35, N-(6((2-fluorophenyl)amino)-1H-indazol-3-yl)-4((1-methylpiperidin-4-yl)oxy)benzamide]
26 | 370 | O=C(Nc1n[nH]c2cc(Nc3ccccc3F)ccc12)c1ccc(N2CCOCC2)cc1 [Compound 36, N-(6((2-fluorophenyl)amino)-1H-indazol-3-yl)-4-morpholinobenzamide]
27 | 283 | CN1CCCC(Oc2ccc(C(=O)Nc3n[nH]c4cc(Nc5ccccc5F)ccc34)cc2)C1 (stereo not drawn) [Compound 38, N-(6((2-fluorophenyl)amino)-1H-indazol-3-yl)-4((1-methylpiperidin-3-yl)oxy)benzamide]
28 | 204 | CN1CCC(c2ccc(C(=O)Nc3n[nH]c4cc(Nc5ccccc5F)ccc34)cc2OCC2COC2)CC1 [Compound 42, N-(6-((2-fluorophenyl)amino)-1H-indazol-3-yl)-4-(1-methylpiperidin-4-yl)-3-(oxetan-3-ylmethoxy)benzamide]
29 | 831 | CN1CCC(c2ccc(C(=O)Nc3n[nH]c4nc(Nc5c(F)ccc6c5OCO6)ccc34)cc2)CC1 [Compound 49, N-(6((5-fluorobenzo[d][1,3]dioxol-4-yl)amino)-1H-pyrazolo[3,4-b]pyridin-3-yl)-4-(1-methylpiperidin-4-yl)benzamide]
30 | 201 | CN1CCC(c2ccc(C(=O)Nc3n[nH]c4cc(Nc5ccccc5F)ccc34)c(NC3CCOCC3)c2)CC1 [Compound 53, N-(6-((2-fluorophenyl)amino)-1H-indazol-3-yl)-4-(1-methylpiperidin-4-yl)-2-((tetrahydro-2H-pyran-4-yl)amino)benzamide]
